{
  "source": "patent US20240285586A1",
  "about": "“METHODS FOR TREATING BACTERIAL CELL POPULATIONS” (THE HONG KONG POLYTECHNIC UNIVERSITY, priority 2021, published 2024)",
  "key": {"[1]": {"test_system": "E. coli", "assay": "Membrane potential assay DiSC3(5), E. coli", "type": "cell-based, Escherichia coli", "conditions": "valinomycin 1 μM, positive control, exponential phase", "method": "Membrane potential assay. The transmembrane electrical potential was measured by using a membrane potential-sensitive probe, DiSC3(5). Bacterial population in either the exponential phase (OD600 of 0.2) or under 24 hrs starvation (resuspended in saline) were collected by centrifugation (6000×g, 2 mins), washed twice and re-suspended in PBS (pH 7.4), and then adjusted to OD600 of 0.2. KCl and DiSC3(5) were added until final concentration of 100 mM and 1 μM was respectively reached, followed by incubation at room temperature for 25 mins in the dark to allow the dye to penetrate through the outer membrane and produce a quenching effect. […] The fluorescence reading was monitored by using a Clariostar Microplate Reader (BMG LABTECH) at an excitation wavelength of 622±10 nm and an emission wavelength of 670±10 nm for 10 mins. Upon depolarization, the dye was rapidly released into the medium, resulting in dequenching and facilitating detection fluorometrically. […] The sample preparation method is same as that prior to testing with the Microplate Reader except for the last step. Briefly, cells were washed with PBS three times before confocal observation to remove extracellular DiSC3(5) dye. […] DiSC3(5) was excited by 638 nm laser and fluorescence was detected by HyD detector at emission wavelength 675±25 nm. The images were acquired and analyzed by the Leica Application Suite X (LAS X) software. […]"}, "[2]": {"test_system": "E. coli J53 (mcr-1)", "assay": "MIC of colistin in presence and absence of compound, broth dilution", "type": "cell-based, Escherichia coli", "conditions": "antibiotic resistant E. coli (FIG. 20)"}, "[3]": {"test_system": "S. typhimurium PY1", "assay": "Mouse peritonitis infection (tolerance sepsis) model", "type": "in vivo", "description": "NIH male mice of about six-weeks-old with body weight of ˜20 g were used, 6 mice per group. The animals were allowed to acclimate to the housing facility for 5 days. The mice were made neutropenic by administering 150 mg/kg cyclophosphamide 3 days and 1 day before infection. Different amounts of S. typhimurium strain PY01 (2.8×10^5 CFU, 7.6×10^5 CFU or 1.5×10^6 CFU) were inoculated into the animals via intraperitoneal injection. The mice were subjected to ceftazidime (20 mg/kg), econazole (20 mg/kg) or ceftazidime combining econazole treatment (i.p.) 24 h after inoculation, at 12 hrs intervals for 72 hrs randomly. The mortality rate of the test mice was recorded every 12 hrs. After 72 h of treatment, live mice were euthanized and subjected to peritoneal washes which involved injection of 2 mL of saline into the intraperitoneal space, followed by abdominal massage. The abdomen was then cut open and 200 μL of peritoneal fluid were collected and serially diluted in saline. A 100 μL portion of each dilution was spread on LB plates, followed by incubation overnight at 37° C. Colonies were counted to determine the bacterial load in the test samples, which were expressed as CFU/ml. Statistical analysis and ethic approval were the same as described above."}, "[4]": {"test_system": "S. typhimurium", "assay": "Starvation-induced tolerance assay, S. typhimurium", "type": "cell-based", "description": "(§1) Tolerance assay. […] Standard serial dilution and plating on LB agar was performed before and after ampicillin treatment for 4 hrs, 2 days, 4 days and 6 days to determine the fraction of the test population that survived at different time points during the course of treatment.\n(§2) Standard serial dilution and plating on LB agar was performed on samples collected every 24 hrs to assess changes in the size of the sub-population that survived during the treatment process.\n(§3) Upon reaching the exponential phase, bacteria were washed and re-suspended in saline (0.9% NaCl), and then incubated at 37° C. under constant shaking (250 rpm/min) for 24 hrs. […] Standard serial dilution and plating on LB agar were performed before and after ampicillin treatment for 4 hrs, 1 day, 2 days and 4 days to determine the fraction of the test population that survived at different time points during the course of treatment."}, "[5]": {"test_system": "S. aureus", "assay": "Starvation-induced tolerance assay, S. aureus", "type": "cell-based, Staphylococcus aureus", "description": "as §1, §2, §3"}, "[6]": {"test_system": "E. coli wild type strain", "assay": "Assessment of efflux activity (Nile Red)", "type": "cell-based, Escherichia coli", "conditions": "CCCP 100 μM, within 30 mins, increased from ~6500 RFU", "description": "Assessment of efflux activity. A10-mL portion of bacterial population which had been subjected to 24 hrs starvation was centrifuged at 6000×g for 5 mins at room temperature. The pellet was re-suspended in PBS containing 1 mM MgCl2(PPB) and adjusted to OD600 0.2. Nile Red which fluoresces only weakly in aqueous solutions but becomes strongly fluorescent in nonpolar environments was added to produce a final concentration of 5 μM followed by incubation at 37° C. for 30 mins, with 250 rpm shaking. CCCP was then added to produce a final concentration of 100 μM; fluorescence was measured for a period of 30 mins by a Clariostar Microplate Reader at an excitation wavelength of 544±10 nm and an emission wavelength of 650±10 nm."}, "[7]": {"test_system": "Gram negative strains", "assay": "Minimal inhibitory concentration, Gram negative strains", "type": "cell-based", "conditions": "all Gram negative test strains", "from_the_text": "Determination of Minimal Inhibitory Concentrations (MICs)."}, "[8]": {"test_system": "K. pneumoniae", "assay": "Starvation-induced tolerance assay, K. pneumoniae", "type": "cell-based, Klebsiella pneumoniae", "description": "as §1, §2, §3"}, "[9]": {"test_system": "E. coli BW25113 wild type", "assay": "Antibiotic accumulation assay (BOCILLIN, flow cytometry), wild type", "type": "cell-based, Escherichia coli", "conditions": "24 hrs starvation, BOCILLIN 10 μg/mL", "description": "(§4) Antibiotic accumulation assay. The overnight bacteria culture was diluted 100-fold in LB broth and cultivated for about 1 hr until the OD600 value reached 0.2 (exponential phase). Aliquots of this exponential phase culture were washed and re-suspended in saline, cultured at 37° C. under constant shaking (250 rpm) for 24 hrs, followed by addition of CCCP (1 μM). After 5 mins, BOCILLIN™ FL Penicillin (10 μg/mL) was added and incubated at 37° C. with shaking at 250 rpm for 1 hr. Upon washing twice with PBS, fluorescence signal was measured by flow cytometry CytoFLEX (Beckman). Microorganisms were identified by FSC (forward scatter) and SSC (side scatter) parameters. Fluorescence intensity was measured at 488-nm excitation, 525-nm emission."}, "[10]": {"test_system": "A. baumannii", "assay": "Starvation-induced tolerance assay, A. baumannii", "type": "cell-based, Acinetobacter baumannii", "description": "as §1, §2, §3"}, "[11]": {"test_system": "E. coli BW25113", "assay": "Starvation-induced tolerance assay, wild type E. coli", "type": "cell-based, Escherichia coli", "conditions": "for size of the E. coli population: within 24 hrs", "description": "as §1, §2, §3"}, "[12]": {"conditions": "general statement; cited from earlier work"}, "[13]": {"test_system": "E. coli BW25113 and its ΔpspA derivative", "assay": "Membrane permeability assay (SYTOX Green)", "type": "cell-based, Escherichia coli", "conditions": "colistin, positive control; similar in wild type and ΔpspA", "description": "Membrane permeability assay. The membrane permeability or integrity of the test organisms was measured using SYTOX Green (ThermoFisher), which can enter the cell through damaged cell membrane and bind to nucleic acid, generating fluorescence signal. E. coli BW25113 and its ΔpspA derivative at a concentration of OD600 of 0.2, which had been subjected to 24 hrs starvation, were collected by centrifugation (6000×g, 2 mins), washed twice and re-suspended in saline. SYTOX Green was then added to give a final concentration of 1 μM, followed by incubation for 30 min in the dark at room temperature. The relative fluorescence signal in the wild type and ΔpspA strain was measured by a Cary Eclipse Fluorescence Spectrophotometer (Agilent), with an excitation wavelength of 488±10 nm and an emission wavelength of 523±10 nm."}, "[14]": {"test_system": "E. coli ΔpspA", "assay": "Antibiotic accumulation assay (BOCILLIN, flow cytometry), ΔpspA", "type": "cell-based, Escherichia coli", "conditions": "24 hrs starvation, no CCCP", "description": "as §4"}, "[15]": {"conditions": "CCCP 100 μM, absence of ampicillin"}, "[16]": {"conditions": "low concentration of CCCP + 10×MIC ampicillin"}},
  "data": [
    {"compound": "CC(C)[C@@H]1NC(=O)[C@H](C)OC(=O)[C@@H](C(C)C)NC(=O)[C@@H](C(C)C)OC(=O)[C@H](C(C)C)NC(=O)[C@H](C)OC(=O)[C@@H](C(C)C)NC(=O)[C@@H](C(C)C)OC(=O)[C@H](C(C)C)NC(=O)[C@H](C)OC(=O)[C@@H](C(C)C)NC(=O)[C@@H](C(C)C)OC1=O", "note": "[valinomycin]", "values": [
      {"measurement": "effect on membrane potential (DiSC3(5) fluorescence)", "setting": "[1]", "value": "caused dissipation of membrane potential"}
    ]},
    {"compound": "Clc1ccc(COC(Cn2ccnc2)c2ccc(Cl)cc2Cl)c(Cl)c1", "note": "(stereo not drawn) [miconazole]", "values": [
      {"measurement": "effect of co-administration with colistin", "setting": "[2]", "value": "bactericidal synergistic effect"}
    ]},
    {"compound": "CC(C)(O/N=C(\\C(=O)N[C@@H]1C(=O)N2C(C(=O)[O-])=C(C[n+]3ccccc3)CS[C@H]12)c1csc(N)n1)C(=O)O", "note": "[ceftazidime]", "values": [
      {"measurement": "infected mice rescued", "setting": "[3]; ceftazidime alone 20 mg/kg, 1.5×10^6 CFU", "value": 10, "unit": "%"},
      {"measurement": "protection of the test animals from death", "setting": "[3]; ceftazidime alone 20 mg/kg, inoculation of 7.6×10^5 CFU", "value": "could protect the test animals from being killed"},
      {"measurement": "rate of eradication of PY1 tolerant sub-population compared with the econazole and ceftazidime combination", "setting": "[3]; ceftazidime only 20 mg/kg, lower inoculum (FIG. 19F), P=0.0004", "value": "significantly slower"},
      {"measurement": "size of the tolerant population", "setting": "[4]; ceftazidime alone (100 μg/ml), 96 hrs (FIG. 16F)", "value": "~1.4×10^7 CFU/mL"}
    ]},
    {"compound": "N#CC(C#N)=NNc1cccc(Cl)c1", "note": "[CCCP, carbonyl cyanide-m-chlorophenylhydrazone]", "values": [
      {"measurement": "eradication of tolerant cells", "setting": "[5]; [15]", "value": "could eradicate tolerant bacteria cells"},
      {"measurement": "effect on phenotypic ampicillin tolerance", "setting": "[5]; [16]", "value": "sufficient to suppress or even completely abolish phenotypic ampicillin tolerance"},
      {"measurement": "Nile Red fluorescence intensity", "setting": "[6]", "value": "~10000", "unit": "RFU"},
      {"measurement": "MIC", "setting": "[7]", "value": "> 160", "unit": "µM"},
      {"measurement": "eradication of tolerant cells", "setting": "[8]; [15]", "value": "could eradicate tolerant bacteria cells"},
      {"measurement": "effect on phenotypic ampicillin tolerance", "setting": "[8]; [16]", "value": "sufficient to suppress or even completely abolish phenotypic ampicillin tolerance"},
      {"measurement": "cells exhibiting high BOCILLIN intensity (>10^3 RFU)", "setting": "[9]; CCCP (1 μM) treatment", "value": 97.86, "unit": "%"},
      {"measurement": "eradication of tolerant cells", "setting": "[10]; [15]", "value": "could eradicate tolerant bacteria cells"},
      {"measurement": "effect on phenotypic ampicillin tolerance", "setting": "[10]; [16]", "value": "sufficient to suppress or even completely abolish phenotypic ampicillin tolerance"},
      {"measurement": "population size", "setting": "[11]; CCCP 1 μM + ampicillin, […], after 24 hrs starvation", "value": "~80", "unit": "cells/mL"},
      {"measurement": "tolerance to ciprofloxacin", "setting": "[11]; CCCP 1 μM + ciprofloxacin 0.5 μg/mL", "value": "not affected"},
      {"measurement": "phenotypic tolerance to gentamicin upon PMF dissipation", "setting": "[11]; CCCP 1 μM + gentamicin 10 μg/mL", "value": "cannot be maintained"},
      {"measurement": "size of the surviving population", "setting": "[11]; CCCP 1 μM alone, […], after 24 hrs starvation", "value": "remained unchanged"},
      {"measurement": "size of the E. coli population", "setting": "[11]; CCCP 100 μM + ampicillin", "value": "~2×10^4 cells/mL"},
      {"measurement": "size of the E. coli population", "setting": "[11]; CCCP 100 μM alone, from ~2.5×10^7 cells/mL", "value": "~5×10^5 cells/mL"},
      {"measurement": "time to eradication of the entire antibiotic tolerant population", "setting": "[11]; CCCP 100 μM with ampicillin", "value": "≤ 48", "unit": "h"},
      {"measurement": "time to eradication of the entire antibiotic tolerant population", "setting": "[11]; CCCP 100 μM without ampicillin", "value": "≤ 48", "unit": "h"},
      {"measurement": "killing effect compared with CCCP alone", "setting": "[11]; CCCP (100 μM) + ampicillin", "value": "significantly stronger"},
      {"measurement": "entire tolerant cell population", "setting": "[11]; CCCP (concentration not stated) and ampicillin, six days", "value": "~50", "unit": "cells/mL"},
      {"measurement": "killing of bacterial tolerant cells", "setting": "[11]; CCCP alone (100 μM)", "value": "kill bacterial tolerant cells"},
      {"measurement": "eradication of tolerant cells", "setting": "[4]; [15]", "value": "could eradicate tolerant bacteria cells"},
      {"measurement": "effect on phenotypic ampicillin tolerance", "setting": "[4]; [16]", "value": "sufficient to suppress or even completely abolish phenotypic ampicillin tolerance"},
      {"measurement": "toxicity or safety in human", "setting": "[12]", "value": "toxic to human"}
    ]},
    {"compound": "Clc1ccc(C(Cn2ccnc2)OCc2csc3c(Cl)cccc23)c(Cl)c1", "note": "(stereo not drawn) [sertaconazole]", "values": [
      {"measurement": "effect of co-administration with colistin", "setting": "[2]", "value": "bactericidal synergistic effect"}
    ]},
    {"compound": "colistin", "values": [
      {"measurement": "effect on membrane permeability (SYTOX Green)", "setting": "[13]", "value": "cause membrane damage and an eventual increase in membrane permeability"}
    ]},
    {"compound": "Clc1ccc(C(Cn2ccnc2)OCc2ccsc2Cl)c(Cl)c1", "note": "(stereo not drawn) [tioonazole]", "values": [
      {"measurement": "effect of co-administration with colistin", "setting": "[2]", "value": "bactericidal synergistic effect"}
    ]},
    {"compound": "Cc1cc(C)n2c1C=C1C=CC(CCC(=O)Nc3ccc(OCC(=O)N[C@@H]4C(=O)N5[C@@H]4SC(C)(C)[C@@H]5C(=O)[O-])cc3)=[N+]1[B-]2(F)F.[Na+]", "note": "[BOCILLIN]", "values": [
      {"measurement": "cells exhibiting high BOCILLIN intensity (>10^3 RFU)", "setting": "[9]; absence of CCCP", "value": 10.45, "unit": "%"},
      {"measurement": "cells that exhibited high BOCILLIN level", "setting": "[14]", "value": 18.52, "unit": "%"}
    ]},
    {"compound": "C=CCOC(Cn1ccnc1)c1ccc(Cl)cc1Cl", "note": "(stereo not drawn) [enilconazole]", "values": [
      {"measurement": "effect of co-administration with colistin", "setting": "[2]", "value": "bactericidal synergistic effect"}
    ]},
    {"compound": "N#C/C(=C1/SC[C@@H](c2ccc(Cl)cc2Cl)S1)n1ccnc1", "note": "[lulionazole]", "values": [
      {"measurement": "effect of co-administration with colistin", "setting": "[2]", "value": "bactericidal synergistic effect"}
    ]}
  ]
}
